Results reported in US6617440B1, “Myostatin regulatory region, nucleotide sequence determination and methods for its use” (Pfizer, Inc., priority 1999, dated 2003).

Columns and labels:
[1] = system: luciferase reporter gene in C2C12 cells; test: Transient transfection luciferase reporter assay of myostatin promoter fragments; assay type: cell-based, murine; settings: normalized against Renilla luciferase activity
Protocol: C2C12 are murine muscle cell lines (ATCC #CRL-1772). These cells were maintained in standard culture media at 37° C.
The 1.8 kb and 2.5 kb myostatin promoter fragments and additional subclones of 320 bp and 901 bp proximal to the myostatin protein coding region were placed into the multicloning site of the pGL3 basic vector (Promega) 5′ to the coding sequence for luciferase. In this vector, the luciferase gene lacks a promoter, and, consequently, is under the control of any promoter cloned upstream of it. These plasmid vectors were used to transiently transfect C2C12 cells, using Fugene (Boehringer Mannheim) as a carrier to introduce the plasmid into the cells. The cell cultures were grown at 37° C., 5% CO2, in DMEM, and luciferase activity was measured using a commercial kit (Promega Luciferase Assay System, E150).
The ability of the various fragments of the murine myostatin promoter region to control expression of the luciferase reporter gene in transient transfection assays is shown in FIG. 2. In each experiment, C2C12 cells were co-transfected with a second vector that employs a CMV promotor to express constitutively a Renilla luciferase gene (pRL-CMV, Promega). Values presented for the myostatin promoter constructs were all normalized against Renilla luciferase activity.

[2] = system: C2C12 muscle cells; test: Expression of porcine GHRH from a myostatin promoter vector transiently transfected into C2C12 muscle cells; assay type: cell-based, murine; settings: transient transfection, compared with a CMV promoter
From the text: Direct injection into muscle of DNA plasmids with muscle specific or constitutive promoters results in expression of the gene under control of that promoter. A vector utilizing the murine 2.5 kb myostatin promoter to drive expression of porcine growth hormone releasing hormone (GHRH) was constructed. […] In accordance with the present invention, the construct may be directly introduced into a host by direct injection of naked DNA.

Substance: 2.5 kb fragment: 2482 bp DNA fragment immediately 5' to the murine myostatin gene, the murine myostatin promoter (SEQ ID NO: 1)
- transcriptional activity (luciferase reporter expression), in words [1]: strongest promoter of those tested
- expression of GHRH detected in culture supernatants [2]: levels similar to those found using a CMV promoter
